How the values were obtained:
EGFR = EGFR (Homo sapiens, UniProt P00533); conditions: binding to the EGFR; read-out: dissociation constant; cited from earlier work
glioma cancer cells = conditions: stated as known; cited from earlier work
9L.E29 cells [1] = experiment: Cell viability assay using Trypan blue; format: cell-based, rat; conditions: 1 μM of Pc 4 and 1 J/cm^2 of laser power
Text: Cell viability assays using Trypan blue for EGFpep-Au NP-Pc 4 treated cells further illustrated this point (FIG. 4C), showing not only an increase in the number of dead cancer cells, but possibly different pathways of cell death.

9L.E29 cells [2] = conditions: free Pc 4, stated as known; cited from earlier work

Row | Substance | Kd (EGFR) [nM] | localization of free Pc 4 (known) (glioma cancer cells) | mode of cell death (Trypan blue staining) (9L.E29 cells [1]) | subcellular localization of Pc 4 (known) (9L.E29 cells [2])
1 | YHWYGYTPQNVI [EGF peptide, YHWYGYTPQNVI-amide] | 22 | – | – | –
2 | phthalocyanine 4 [free Pc 4] | – | known to locate in the mitochondria | caused most cancer cells to die very quickly | localize mainly in mitochondria with some additional localization within lysosomes

Source: patent US10905762B2, “Targeted nanoparticle conjugates” (CASE WESTERN RESERVE UNIVERSITY, priority 2011, dated 2021)
